Results published in patent US7928139B2 (Amgen Inc., priority 2006, dated 2011).

Target: HIF PHD2 (Homo sapiens, UniProt Q9GZT9)
Assay: PHD2 inhibition assay (TR-FRET, VCB-Eu detection of hydroxylated P564-HIF1α peptide)
Type: biochemical
Conditions: 2 nM PHD2, 100 nM P564-HIF1α peptide, 0.25 μM 2-oxoglutarate, 100 μM FeCl2, 2 mM ascorbic acid
Method in brief: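 Human PHD2 (2 nM final) preincubated 1 h at room temperature with compound and 100 μM FeCl2 in pH 6 MES buffer, 5% DMSO final. Reaction with 100 nM biotinylated P564-HIF1α peptide, 2 mM ascorbate and 0.25 μM 2-oxoglutarate for 1 h, stopped with succinate. Hydroxylation read by TR-FRET (VCB-Eu/streptavidin-APC, 655/615 nm); IC50 from 4-parameter fit of percent of control.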

Chain of HIF PHD2 (Q9GZT9 whole entry): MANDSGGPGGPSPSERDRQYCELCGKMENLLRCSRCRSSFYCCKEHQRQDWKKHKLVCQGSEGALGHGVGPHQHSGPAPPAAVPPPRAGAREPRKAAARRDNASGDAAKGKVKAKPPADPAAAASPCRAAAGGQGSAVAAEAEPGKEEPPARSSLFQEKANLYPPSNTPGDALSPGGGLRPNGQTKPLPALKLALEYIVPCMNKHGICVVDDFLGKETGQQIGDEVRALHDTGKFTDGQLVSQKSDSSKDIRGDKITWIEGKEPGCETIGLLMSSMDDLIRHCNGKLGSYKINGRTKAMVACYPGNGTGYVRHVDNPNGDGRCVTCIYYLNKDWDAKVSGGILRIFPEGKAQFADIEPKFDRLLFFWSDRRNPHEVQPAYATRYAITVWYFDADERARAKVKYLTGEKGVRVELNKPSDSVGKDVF

| SMILES | IC50 [nM] |
| --- | --- |
| CC1(C)C(=O)C(C(=O)NCC(=O)O)=C(O)c2cc(-c3ccc(F)cc3)ccc21 [Example 32, N-((6-(4-Fluorophenyl)-4-hydroxy-1,1-dimethyl-2-oxo-naphthalen-3-yl)carbonyl)glycine] | 100 to 500 |
| C[C@@]1(C#N)C(=O)C(C(=O)CCC(=O)O)=C(O)c2cc(Cl)ccc21 (single isomer, unassigned) [Example 120, 4-(7-chloro-4-cyano-1-hydroxy-4-methyl-3-oxo-3,4-dihydronaphthalen-2-yl)-4-oxobutanoic acid] | 1000 to 10000 |
| CC(C)COc1ccc2c(c1F)C(C)(C)C(=O)C(C(=O)NCC(=O)O)=C2O [Example 21, N-((8-Fluoro-4-hydroxy-1,1-dimethyl-7-((2-methylpropyl)oxy)-2-oxo-naphthalen-3-yl)carbonyl)glycine] | 100 to 500 |
| CCC1(C)C(=O)C(C(=O)NCC(=O)O)=C(O)c2ccc(Cl)cc21 (centres unmarked) [Example 43, N-((7-Chloro-1-ethyl-4-hydroxy-1-methyl-2-oxo-naphthalen-3-yl)carbonyl)glycine] | 100 to 500 |
| O=C(N[C@@H](CO)C(=O)O)C1=C(O)c2cc(Cl)ccc2C2(CCOCC2)C1=O [Example 95, N-((6-Chloro-4-hydroxy-2-oxo-2′,3′,5′,6′-tetrahydro-spiro[naphthalene-1,4′-pyran]-3-yl)carbonyl)-L-serine] | 100 to 500 |
| O=C(O)CNC(=O)C1=C(O)c2cc(Cl)ccc2[C@@]2(CCOC2)C1=O [Example 10, N-(((3R)-6′-Chloro-4′-hydroxy-2′-oxo-4,5-dihydro-spiro[furan-3,1′-naphthalen]-3′-yl)carbonyl)glycine] | < 100 |
| CC1(C)C(=O)C(C(=O)NCC(=O)O)=C(O)c2ccc(F)c(F)c21 [Example 24, N-((7,8-Difluoro-4-hydroxy-1,1-dimethyl-2-oxo-naphthalen-3-yl)carbonyl)glycine] | < 100 |
| O=C(O)CNC(=O)C1=C(O)c2ccccc2C2(CCOCC2)C1=O [Example 94, N-((4-hydroxy-2-oxo-2′,3′,5′,6′-tetrahydro-spiro[naphthalene-1,4′-pyran]-3-yl)carbonyl)glycine] | < 100 |
| CCCCCCCCc1ccc2c(c1)C(C)(C)C(=O)C(C(=O)NCC(=O)O)=C2O [Example 115, 2-(2-hydroxy-1,1-dimethyl-7-octyl-4-oxo-1,4-dihydronaphthalene-3-carboxamido) acetic acid] | 1000 to 10000 |
| O=C(O)CNC(=O)C1=C(O)c2cc(Cl)ccc2[C@@]2(CCCO2)C1=O [Example 73, N-(((2S)-6′-Chloro-4′-hydroxy-2′-oxo-4,5-dihydro-spiro[furan-2,1′-naphthalen]-3′-yl)carbonyl)glycine] | < 100 |
| CC1(C#N)C(=O)C(C(=O)NCC(=O)O)=C(O)c2cc(Cl)ccc21 (centres unmarked) [Example 84, N-((6-Chloro-1-cyano-4-hydroxy-1-methyl-2-oxo-naphthalen-3-yl)carbonyl)glycine] | < 100 |
| O=C(O)CNC(=O)C1=C(O)c2cc(Cl)ccc2C2(CCCCC2)C1=O [Example 60, N-((6′-Chloro-4′-hydroxy-2′-oxo-spiro[cyclohexane-1,1′-naphthalen]-3′-yl)carbonyl)glycine] | 100 to 500 |

More lines, now with the values ahead:

| IC50 [nM] | SMILES |
| --- | --- |
| < 100 | CC1(C)C(=O)C(C(=O)NCC(=O)O)=C(O)c2ccc(Br)cc21 [Example 53, N-((7-Bromo-4-hydroxy-1,1-dimethyl-2-oxo-naphthalen-3-yl)carbonyl)glycine] |
| < 100 | CC1(C)C(=O)C(C(=O)NCC(=O)O)=C(O)c2cc(Cl)c(Cl)cc21 [Example 64, N-((6,7-Dichloro-4-hydroxy-1,1-dimethyl-2-oxo-naphthalen-3-yl)carbonyl)glycine] |
| < 100 | O=C(O)CNC(=O)C1=C(O)c2cc(F)ccc2C2(CCOCC2)C1=O [Example 17, N-((6-Fluoro-4-hydroxy-2-oxo-2′,3′,5′,6′-tetrahydro-spiro[naphthalene-1,4′-pyran]-3-yl)carbonyl)glycine] |
| < 100 | CC1(C)C(=O)C(C(=O)NCC(=O)O)=C(O)c2ccc(Cl)c(F)c21 [Example 90, N-((7-Chloro-8-fluoro-4-hydroxy-1,1-dimethyl-2-oxo-naphthalen-3-yl)carbonyl)glycine] |
| < 100 | C[C@@]1(C#N)C(=O)C(C(=O)NCC(=O)O)=C(O)c2cc(F)ccc21 (single isomer, unassigned) [Example 135, (R)-2-(1-cyano-6-fluoro-4-hydroxy-1-methyl-2-oxo-1,2-dihydronaphthalene-3-carboxamido) acetic acid or (S)-2-(1-cyano-6-fluoro-4-hydroxy-1-methyl-2-oxo-1,2-dihydronaphthalene-3-carboxamido) acetic acid] |
| < 100 | COc1ccc2c(c1)C(O)=C(C(=O)NCC(=O)O)C(=O)C21CCOCC1 [Example 16, N-((4-Hydroxy-6-(methyloxy)-2-oxo-2′,3′,5′,6′-tetrahydro-spiro[naphthalene-1,4′-pyran]-3-yl)carbonyl)glycine] |
| < 100 | CC1(C#N)C(=O)C(C(=O)NCC(=O)O)=C(O)c2ccc(Cl)cc21 (centres unmarked) [Example 129, 2-(7-chloro-1-cyano-4-hydroxy-1-methyl-2-oxo-1,2-dihydronaphthalene-3-carboxamido) acetic acid] |
| < 100 | CC1(C)C(=O)C(C(=O)NCC(=O)O)=C(O)c2ccc(/C=C/c3ccccc3)cc21 [Example 108, (E)-2-(2-Hydroxy-1,1-dimethyl-4-oxo-7-styryl-1,4-dihydronaphthalene-3-carboxamido)acetic acid] |
| < 100 | O=C(O)CNC(=O)C1=C(O)c2cc(Cl)ccc2C2(CCOCC2)C1=O [Example 1, N-((6-Chloro-4-hydroxy-2-oxo-2′,3′,5′,6′-tetrahydro-2H-spiro[naphthalene-1,4′-pyran]-3-yl)carbonyl)glycine] |
| < 100 | CC1(C)C(=O)C(C(=O)NCC(=O)O)=C(O)c2cc(F)c(Cl)cc21 [Example 96, N-((7-Chloro-6-fluoro-4-hydroxy-1,1-dimethyl-2-oxo-naphthalen-3-yl)carbonyl)glycine] |
| < 100 | CC1(C)C(=O)C(C(=O)NCC(=O)O)=C(O)c2cccc(Cl)c21 [Example 89, N-((8-Chloro-4-hydroxy-1,1-dimethyl-2-oxo-naphthalen-3-yl)carbonyl)glycine] |
| < 100 | O=C(O)CNC(=O)C1=C(O)c2ccc(C(F)(F)F)cc2C2(CCOCC2)C1=O [Example 45, N-((7-Trifluoromethyl-4-hydroxy-2-oxo-2′,3′,5′,6′-tetrahydro-spiro[naphthalene-1,4′-pyran]-3-yl)carbonyl)glycine] |
| < 100 | C[C@@]1(C#N)C(=O)C(C(=O)NCC(=O)O)=C(O)c2cc(F)c(F)cc21 (single isomer, unassigned) [Example 142, (R)-2-(1-cyano-6,7-difluoro-4-hydroxy-1-methyl-2-oxo-1,2-dihydronaphthalene-3-carboxamido) acetic acid or (S)-2-(1-cyano-6,7-difluoro-4-hydroxy-1-methyl-2-oxo-1,2-dihydronaphthalene-3-carboxamido) acetic acid] |
| < 100 | O=C(O)CCC(=O)C1=C(O)c2cc(Cl)ccc2C2(CCOCC2)C1=O [Example 119, 4-(6-Chloro-2-hydroxy-4-oxo-2′,3′,5′,6′-tetrahydro-4H-spiro[naphthalene-1,4′-pyran]-3-yl)-4-oxobutanoic acid] |
